Laboratory results reported in patent US20220339135A1, “COMPOSITIONS AND METHODS FOR MODULATING AN INFLAMMATORY RESPONSE” (Enzychem Lifesciences Corporation, priority 2019, published 2022).

Columns and labels:
[1] = test system: MIP-2, IL-6, CXCL8 in RAW 264.7 or HaCaT cells; assay: IMQ-induced chemokine release, ELISA; type: cell-based; details: PLAG 1, 10, 100 μg/ml, IMQ 12 hours, dose-dependent
Protocol: RAW 264.7 or HaCaT cells were divided into three groups: 1) control (non-treated) group, 2) IMQ treated group, and 3) IMQ/PLAG treated group. For IMQ treated group, cells were treated with 1, 10, 100 μg/ml of DMSO (as solvent control) for 1 hour and treated with 5 μg/mL of IMQ for 12 hours. For IMQ/PLAG treated group, cells were treated with 1, 10, 100 μg/ml of PLAG for 1 hour and treated with 5 μg/mL of IMQ for 12 hours. MIP-2 (A), IL-6 (B) and CXCL8 (C) in the culture supernatants were analyzed with the cognate antibody using ELISA kit. Modulation of CXCL8 expression in the IMQ treated HaCaT cells by MAPK inhibitors, SCH 772984 (ERK inhibitor, (D)), SP600125 (JNK inhibitor, (E)) and SB203580 (p38 inhibitor, (F)) was evaluated using ELISA kit (BD bioscience, New Jersey, USA) according to the manufacturer's instructions. The cytokine levels were estimated by interpolation from a standard curve using an ELISA reader (Molecular Devices, Sunnyvale, USA) at 450 nm.

[2] = test system: apoptotic neutrophils (differentiated HL60) co-cultured with macrophage (differentiated THP-1); assay: Efferocytosis index and apoptotic cell clearance; type: cell-based, human
Protocol: THP-1 and HL60 cells were obtained from the American Type Culture Collection (ATCC, Rockville, Md., USA). THP-1 cells were grown in RPMI1640 medium (WELGENE, Seoul, Korea) containing 10% fetal bovine serum (HyClone, Waltham, Mass., USA), 1% antibiotics (100 mg/l streptomycin, 100 U/ml penicillin), and 0.4% 2-Mercaptoethanol (Sigma Aldrich, St. Louis, Mo., USA). HL60 cells were grown in RPMI1640 medium containing 20% fetal bovine serum and 1% antibiotics (100 mg/l streptomycin, 100 U/ml penicillin). Cells were grown at 37° C. in a 5% CO2 atmosphere. To differentiate THP-1 cells into macrophage-like cells, cells were grown in medium with 1% Phorbol 12-myristate 13-acetate (PMA) (Sigma Aldrich) for 72 h. To differentiate […] cells into neutrophil-like cells, cells were grown in medium with 10% DMSO (Sigma Aldrich) for 5 days
Differentiation HL60 was stained with […] CellTracker Red CMTPX (Molecular probes, Eugene, OG, USA) for 30 minutes in PBS and lead to apoptosis by PMA treatment for 24 hours. […] Efferocytotic index was analyzed by FACS (BD bioscience, Franklin Lakes, N.J., USA). […]
Differentiation HL60 was stained with […] CellTracker Red CMTPX (Molecular probes, Eugene, OG, USA) for 30 minutes in PBS and lead to apoptosis by PMA treatment. […] Fluorescence overlay videos were recorded using ZEN program (Carl Zeiss, Thornwood, NY, USA)

[3] = Cumulative excretion of radioactivity after single oral administration; type: in vivo, rats
Protocol: Excretion of PLAG at a single oral administration of 50 mg/kg BW to rats was examined in Mitsubishi Chemical Medicine Corporation (Japan) by radioactivity analysis. After oral administration of a single dose of 50 mg/kg, animals were individually accommodated in glass metabolic cages (Metabolica Model MC-CO2). Spontaneously excreted urine, feces, and radioactive molecules expired from each animal were collected. Sampling time points are 0-24, 24-48, 48-72 hours after administration. Then radioactivity and the excretion ratios and amount of radioactivity were determined. Radioactivity was measured by LSC (Tri-Carb 2300TR. Perkin Elmer, Inc) with the tSIE (transformed spectral index of external standard) method for the quenching correction.

[4] = Micelle particle size by DLS and TEM; type: physicochemical; details: micelles
Protocol: The formation of micelles composed of PLAG or POPC was prepared in RPMI1640 medium by vigorous stirring at a final concentration of 10 mg/ml. The particle size of PLAG and POPC micelles was measured by dynamic light scattering (Zetasizer 3000HS, Malvern Instruments Ltd., UK). The morphological examination of the micelles was performed by transmission electron microscopy (TEM) by dropping the samples into the carbon films on the copper grid for viewing with 2% (weight per volume) phosphotungstic acid staining.

[5] = test system: HMGB1 and S100A9; assay: Radiation-induced DAMP molecules in mice serum, western blot; type: in vivo; details: 6.11Gy, PLAG 50, 250 mg/kg oral 3 days
Protocol: The total-body of mice were irradiated with a gamma-ray of 6.11Gy on day 0. After that, the body weight of 1 day was measured and divided into 3 groups according to the average. PLAG (50, 250 mg/kg) or PBS was orally administered for 3 days from 1 day and sacrificed on the 3rd day. Add 3 ul serum to 97 ul of 1×SDS sample buffer and boiled for 10 min. Proteins from each sample were separated by sodium dodecyl sulfate-polyacrylamide gel electrophoresis on 8% polyacrylamide gels and the proteins were blotted onto a PVDF membrane (Millipore Corporation, Germany). The membrane was blocked with 5% non-fat dried milk (BD bioscience) in PBS containing 0.05% Tween-20 (Calbiochem) for 1 h. The membrane was incubated with anti-HMGB1 (abcam), anti-MRP14 (abcam) at 4° C. overnight. After washing with PBS containing 0.05% Tween-20, the membrane was stained with goat anti-rabbit IgG peroxidase (ENZO). Target proteins were detected with Immobilon Western Chemiluminescent HRP Substrate (Millipore Corporation).

[6] = test system: SR-A silenced cells; assay: Phagocytosis and ROS in SR-A silenced cells; type: cell-based
[7] = test system: gemcitabine-induced neutropenia; details: cited from earlier work

CCCCC/C=C\C/C=C\CCCCCCCC(=O)OC(COC(C)=O)COC(=O)CCCCCCCCCCCCCCC (racemic) [PLAG, 1-palmitoyl-2-linoleoyl-3-acetylglycerol]
MIP-2, IL-6, CXCL8 induced by IMQ [1]: gradually decreased
clearance of apoptotic neutrophils by macrophage phagocytosis observed within ([2]; PLAG 100 μg/mL, confocal): ≤ 30 min
efferocytosis of apoptotic neutrophils (efferocytotic index) ([2]; dose-dependently): promotes
dosed radioactivity excreted into expired air ([3]; 50 mg/kg oral, by 24 hours): 71.0%
dosed radioactivity excreted into feces ([3]; 50 mg/kg oral, by 24 hours): 3.0%
dosed radioactivity excreted into urine ([3]; 50 mg/kg oral, by 24 hours): 1.9%
total recovery of radioactivity ([3]; 50 mg/kg oral, by 24 hours): 75.9%
PLAG administered degraded and metabolized ([3]; within 24 hours): approximately 76%
average diameter (DLS) [4]: 107.6 nm
particle shape (TEM) [4]: spherical shape
level of HMGB1 and S100A9 induced by radiation [5]: significantly decreased
PAMP molecules-induced intracellular ROS ([6]; SR-A silenced cells): does not increase
enhanced phagocytosis by PLAG ([6]; knockdown of SR-A): does not show the enhanced phagocytosis
gemcitabine-induced neutropenia ([7]; Jeong et al., 2019): attenu¬ated the neutropenia
anti-cancer effect of gemcitabine ([7]; athymic nude mice implanted with a human myeloma cell line): did not interfere
